This assay concerns mTOR pathway. Description: Western blot of P70S6 and pP70S6 in corneal epithelium, disepithelization model (Example 1). The class given is in vivo, mice. Here is the method: Eight-week-old C57BL6/N (Charles River, Calco, Italy) (WT mice, n=8) and B6.Cg-Tac1tm1Bbm/J (Jackson Laboratories, Bar Harbor, Me., USA) (TAC1-KO mice, n=8) male mice were used in all experiments. Each animal was anesthetized with intraperitoneal injection of tribromoethanol (250 mg/kg) and a topical anesthetic was applied to their ocular surface prior to the surgical procedure. Disepithelization was performed based on the model previously described, using a blunt spatula to scrap the entire corneal epithelium from limbus to limbus. After wounding, eyes were treated with ophthalmic moxifloxacin 1 time/day for 1 week to […]. Fourteen days after disepithelization mice were euthanized using carbon dioxide inhalation and subsequent cervical dislocation. Corneas were collected for immunostaining and western blot analysis. All experimental protocols were approved by the Animal Care and Use Committee of the Istituto di Ricovero e cura a Carattere Scientifico San Raffaele Scientific Institute, in accordance with the ARVO Statement for the Use of Animals in Ophthalmic and Vision Research.
To evaluate the pharmacological inhibition of Substance P, an additional group of mice (WT-FOSA, n=6) received Fosaprepitant 10 mg/mL (IVEMEND, Merck Sharp & Dohme Ltd., Hoddes-don, UK) dissolved in a total volume of 10 μL phosphate-buffered saline (PBS, Sigma-Aldrich, St. Louis, Mo., USA) or 10 μL of vehicle as control, topically four times a day in both eyes for 14 days. The treatments started 1 day after corneal dispepithelization.
For Western Blot analysis, corneal epithelium was isolated after 30 minutes of EDTA treatment (Sigma-Aldrich Corp., St. Louis, Mo., USA) at 37° C. […] Bands were quantified using Image Lab™ software (Version 6.0.1, Bio-Rad Laboratories, Hercules, Calif., USA).
The expression of p70 S6 Kinase (P70S6), phospho-p70 S6 Kinase (pP70S6), and phospho-histone 2-AX (γH2AX) was evaluated by Western Blot, as previously described in section 2.9. […] Bands were quantified using Image J software (National Institutes of Health, Bethesda, Md., USA).
On the technique in general: In western blotting, separated proteins are transferred to a membrane and probed.

The values that follow come from US20230134843A1, “TREATMENT OF STEM CELL DEFICIENCY” (OSPEDALE SAN RAFFAELE S.R.L., priority 2020, published 2023).

The structures appear in SMILES notation.

`C[C@@H](O[C@H]1OCCN(Cc2nc(=O)n(P(=O)(O)O)[nH]2)[C@H]1c1ccc(F)cc1)c1cc(C(F)(F)F)cc(C(F)(F)F)c1` [Fosaprepitant, [3-{[(2R,3S)-2-[(1R)-1-[3,5-bis(trifluoromethyl)phenyl]ethoxy]-3-(4-fluorophenyl)morpholin-4-yl]methyl}-5-oxo-2H-1,2,4-triazol-1-yl]phosphonic acid]: the “pP70S6 expression compared to WT (in words)” value (Fosaprepitant 10 mg/mL (WT-FOSA), western blot) is listed as “significant decrease”. The “ratio between pP70S6 and P70S6 expression (mTOR pathway activation) compared to WT” value (Fosaprepitant 10 mg/mL topically four times a day for 14 days (WT-FOSA)) is “significant decrease”. The “decrease in pP70S6 expression compared to WT” value (Fosaprepitant 10 mg/mL topically four times a day for 14 days (WT-FOSA), p<0.05) was 38%.
